Source: publication PMC5105127, “16-nor Limonoids from Harrisonia perforata as promising selective 11β-HSD1 inhibitors” (Scientific Reports, 2016)
Read-outs that look alike come from different tables or passages of the source. Each block holds one molecule with its values, some of them ahead of it.

Tests used:
Format in all cases: biochemical
murine 11β-HSD1 = target: T1, murine 11β-HSD1 (Mus musculus, UniProt P50172); assay: scintillation proximity assay (SPA), murine 11β-HSD1
T1 construct: The full-length cDNAs of human or murine11β-HSD1 and 11β-HSD2 were isolated from the cDNA libraries; made in house; host or cells: HEK-293, stably transfected with a pcDNA3 plasmid; microsomal fraction
T1 sequence (P50172 whole entry): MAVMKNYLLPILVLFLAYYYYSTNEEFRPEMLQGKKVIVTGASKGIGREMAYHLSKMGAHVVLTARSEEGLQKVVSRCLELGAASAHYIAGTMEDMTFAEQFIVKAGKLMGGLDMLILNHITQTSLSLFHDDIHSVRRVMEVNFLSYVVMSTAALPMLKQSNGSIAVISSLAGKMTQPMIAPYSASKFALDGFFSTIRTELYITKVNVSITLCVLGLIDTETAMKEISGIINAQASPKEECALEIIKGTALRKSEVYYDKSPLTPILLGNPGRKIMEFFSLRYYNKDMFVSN
Procedure: The inhibitory activity of compounds 1–3 on murine and human 11β-HSD1 was evaluated using the scintillation proximity assay (SPA)[25]. […] We further used the intact cell transfected with human HSD11B1 and HSD11B2 to screen their bioactivities. […] The inhibitory activities of the compounds on human or mouse 11β-HSD1 and 11β-HSD2 were determined using the scintillation proximity assay (SPA). The full-length cDNAs of human or murine11β-HSD1 and 11β-HSD2 were isolated from the cDNA libraries provided by NIH Mammalian Gene Collection. The cDNAs were cloned into pcDNA3 expression vectors. HEK-293 cells were transfected with the pcDNA3-derived expression plasmid and selected by cultivation in the presence of 700 μg/ml of G418. The microsomal fraction overexpressing 11β-HSD1 or 11β-HSD2 was prepared from the HEK-293 cells, which were stably transfected with 11β-HSD1 or 11β-HSD2. The fraction was then used as the enzyme source for SPA. Microsomes containing human or mouse 11β-HSD1 were incubated with NADPH and [^3H] cortisone. The product, [^3H] cortisol, was specifically captured by a monoclonal antibody coupled to protein A-coated SPA beads. The 11β-HSD2 screening was performed by incubating 11β-HSD2 microsomes with [^3H] cortisol and NAD + and monitoring substrate disappearance. All tests were done twice with glycyrrhizinic acid as a positive control.

human 11β-HSD1 = target: T2, human 11β-HSD1 (Homo sapiens, UniProt P28845); assay: scintillation proximity assay (SPA), human 11β-HSD1
T2 construct: The full-length cDNAs of human or murine11β-HSD1 and 11β-HSD2 were isolated from the cDNA libraries; made in house; host or cells: HEK-293, stably transfected with a pcDNA3 plasmid; microsomal fraction
T2 sequence (P28845 whole entry): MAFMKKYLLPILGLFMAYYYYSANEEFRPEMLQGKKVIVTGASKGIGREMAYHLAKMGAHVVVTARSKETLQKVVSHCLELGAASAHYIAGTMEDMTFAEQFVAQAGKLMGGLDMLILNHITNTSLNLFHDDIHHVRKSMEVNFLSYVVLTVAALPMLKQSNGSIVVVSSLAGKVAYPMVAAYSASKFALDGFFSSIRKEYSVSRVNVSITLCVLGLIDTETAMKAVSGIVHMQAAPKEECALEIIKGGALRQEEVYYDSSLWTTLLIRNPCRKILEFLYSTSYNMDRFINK
Procedure: (§1) The inhibitory activity of compounds 1–3 on murine and human 11β-HSD1 was evaluated using the scintillation proximity assay (SPA)[25]. […] We further used the intact cell transfected with human HSD11B1 and HSD11B2 to screen their bioactivities.
(§2) The inhibitory activities of the compounds on human or mouse 11β-HSD1 and 11β-HSD2 were determined using the scintillation proximity assay (SPA). The full-length cDNAs of human or murine11β-HSD1 and 11β-HSD2 were isolated from the cDNA libraries provided by NIH Mammalian Gene Collection. The cDNAs were cloned into pcDNA3 expression vectors. HEK-293 cells were transfected with the pcDNA3-derived expression plasmid and selected by cultivation in the presence of 700 μg/ml of G418. The microsomal fraction overexpressing 11β-HSD1 or 11β-HSD2 was prepared from the HEK-293 cells, which were stably transfected with 11β-HSD1 or 11β-HSD2. The fraction was then used as the enzyme source for SPA. Microsomes containing human or mouse 11β-HSD1 were incubated with NADPH and [^3H] cortisone. The product, [^3H] cortisol, was specifically captured by a monoclonal antibody coupled to protein A-coated SPA beads. The 11β-HSD2 screening was performed by incubating 11β-HSD2 microsomes with [^3H] cortisol and NAD + and monitoring substrate disappearance. […] IC50 (X + SD, n = 2) values were calculated by using Prism Version 4 (GraphPad Software, SanDiego, CA).

human 11β-HSD2 = assay: scintillation proximity assay (SPA), human 11β-HSD2; settings: human 11β-HSD2 vs human 11β-HSD1
Procedure: as §1, §2

murine 11β-HSD2 = target: T3, murine 11β-HSD2 (Mus musculus, UniProt P51661); assay: scintillation proximity assay (SPA), murine 11β-HSD2
T3 construct: The full-length cDNAs of human or murine11β-HSD1 and 11β-HSD2 were isolated from the cDNA libraries; made in house; host or cells: HEK-293, stably transfected with a pcDNA3 plasmid; microsomal fraction
T3 sequence (P51661 1-386): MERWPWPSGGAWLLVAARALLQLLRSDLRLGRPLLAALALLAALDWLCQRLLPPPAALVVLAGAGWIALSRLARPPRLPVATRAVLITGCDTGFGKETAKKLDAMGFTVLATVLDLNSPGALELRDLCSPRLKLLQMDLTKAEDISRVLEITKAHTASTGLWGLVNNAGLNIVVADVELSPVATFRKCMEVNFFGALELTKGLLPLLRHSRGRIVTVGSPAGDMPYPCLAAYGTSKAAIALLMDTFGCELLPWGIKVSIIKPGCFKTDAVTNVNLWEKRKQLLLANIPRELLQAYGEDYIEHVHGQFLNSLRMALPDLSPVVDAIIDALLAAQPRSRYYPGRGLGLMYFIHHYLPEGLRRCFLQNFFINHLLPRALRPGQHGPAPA
Procedure: as §1, §2

inhibition at 0.001 µM (murine 11β-HSD1; 1 nM, read-out: Inhibition rate on murine 11β-HSD1): 21.2% | inhibition at 0.01 µM (murine 11β-HSD1; 10 nM, read-out: Inhibition rate on murine 11β-HSD1): 51.9% | inhibition at 0.1 µM (murine 11β-HSD1; 100 nM, read-out: Inhibition rate on murine 11β-HSD1): 86.8%
Compound: CC1(C)[C@@H](O[C@H]2O[C@H](C(=O)O)[C@@H](O)[C@H](O)[C@H]2O[C@@H]2O[C@H](C(=O)O)[C@@H](O)[C@H](O)[C@H]2O)CC[C@]2(C)[C@H]3C(=O)C=C4[C@@H]5C[C@@](C)(C(=O)O)CC[C@]5(C)CC[C@@]4(C)[C@]3(C)CC[C@@H]12 [Glycyrrhizic acid, reference compound]

IC50 (human 11β-HSD1; SPA, text: intact cell transfected with human HSD11B1, whole cell assay, read-out: IC50, inhibition of human 11β-HSD1): 580 nM
Compound: CC1=CC23C(=O)OC(C)(C)C1CC2(O)CC1=C2C(=O)OC(c4ccoc4)C2(C)CCC13 (centres unmarked) [Compound 3, Harperforin G]
SI (selectivity against human 11β-HSD2) (human 11β-HSD2): > 174

inhibition at 0.1 µM (murine 11β-HSD1; 0.1 μM, read-out: Inhibition rate on murine 11β-HSD1): 22.8% | inhibition at 0.3 µM (murine 11β-HSD1; 0.3 μM, read-out: Inhibition rate on murine 11β-HSD1): 35.1% | inhibition at 1 µM (murine 11β-HSD1; 1 μM, read-out: Inhibition rate on murine 11β-HSD1): 55.8% | inhibition at 3 µM (murine 11β-HSD1; 3 μM, read-out: Inhibition rate on murine 11β-HSD1): 79.4% | inhibition at 10 µM (murine 11β-HSD1; 10 μM, read-out: Inhibition rate on murine 11β-HSD1): 90.5% | IC50 (murine 11β-HSD1; SPA, text: intact CHOP cells transfected with murine HSD11B1, read-out: IC50, inhibition of murine 11β-HSD1): 600 nM | inhibition of murine 11β-HSD2 activity (murine 11β-HSD2; at 1 mM): did not inhibit the enzyme at all | SI (selectivity against murine 11β-HSD2) (murine 11β-HSD2; murine 11β-HSD2 vs murine 11β-HSD1): > 1661 | inhibitory activity against human 11β-HSD1 enzyme (human 11β-HSD1; in words): low inhibitory activity
Compound: CC1(C)OC(=O)C=C[C@]2(C)O[C@@]3(CC4=C5C(=O)O[C@@H](c6ccoc6)[C@]5(C)CC[C@H]4O3)C[C@H]12 [Compound 1, Harperspinoid A]
